Data from patent publication US8592173B2, “Cancer diagnosis by measuring polyisoprenylated methylated protein methyl esterase activity” (Florida Agricultural and Mechanical University, priority 2011, dated 2013).

Tested on: PMPMEase
Assay: Inhibition of PMPMEase by drugs, curcumin, fatty acids and prostaglandins
Type: biochemical
Conditions: for concentrations at which PMPMEase is inhibited: concentration range stated in words only

Compound | concentrations at which PMPMEase is inhibited | further results
CCCCC[C@H](O)/C=C/[C@H]1[C@H](O)CC(=O)[C@@H]1C/C=C\CCCC(=O)O [PGE2] |  | inhibition of PMPMEase at 1 mM (1 mM): did not inhibit
CCCCC[C@H](O)/C=C/[C@H]1C=CC(=O)[C@@H]1C/C=C\CCCC(=O)O [Prostaglandin (PG) A2] |  | fold less potent than AA as PMPMEase inhibitor (relative to arachidonic acid (AA)): 63 fold
CCCCC/C=C\C/C=C\C/C=C\C/C=C\CCCC(=O)O [arachidonic acid] | micromolar concentrations | 
COc1cc(/C=C/C(=O)CC(=O)/C=C/c2ccc(O)c(OC)c2)ccc1O [curcumin] | micromolar concentrations | 
O=P1(N(CCCl)CCCl)NCCCO1 (stereo not drawn) [cyclophosphamide] | millimolar concentrations | 
CC/C(=C(\c1ccccc1)c1ccc(OCCN(C)C)cc1)c1ccccc1 [tamoxifen] | millimolar concentrations | 
